Source: ChEMBL document CHEMBL1152560, “Substituted 2-arylbenzothiazoles as kinase inhibitors: hit-to-lead optimization” (Bioorg Med Chem, 2009)

Columns and labels:
[1] = molecular target: T1, Ephrin type-B receptor 2 (Homo sapiens) (UniProt P29323); assay: Residual activity of EPHB2 at 0.1 uM by microplate scintillation counting
T1 sequence (whole entry): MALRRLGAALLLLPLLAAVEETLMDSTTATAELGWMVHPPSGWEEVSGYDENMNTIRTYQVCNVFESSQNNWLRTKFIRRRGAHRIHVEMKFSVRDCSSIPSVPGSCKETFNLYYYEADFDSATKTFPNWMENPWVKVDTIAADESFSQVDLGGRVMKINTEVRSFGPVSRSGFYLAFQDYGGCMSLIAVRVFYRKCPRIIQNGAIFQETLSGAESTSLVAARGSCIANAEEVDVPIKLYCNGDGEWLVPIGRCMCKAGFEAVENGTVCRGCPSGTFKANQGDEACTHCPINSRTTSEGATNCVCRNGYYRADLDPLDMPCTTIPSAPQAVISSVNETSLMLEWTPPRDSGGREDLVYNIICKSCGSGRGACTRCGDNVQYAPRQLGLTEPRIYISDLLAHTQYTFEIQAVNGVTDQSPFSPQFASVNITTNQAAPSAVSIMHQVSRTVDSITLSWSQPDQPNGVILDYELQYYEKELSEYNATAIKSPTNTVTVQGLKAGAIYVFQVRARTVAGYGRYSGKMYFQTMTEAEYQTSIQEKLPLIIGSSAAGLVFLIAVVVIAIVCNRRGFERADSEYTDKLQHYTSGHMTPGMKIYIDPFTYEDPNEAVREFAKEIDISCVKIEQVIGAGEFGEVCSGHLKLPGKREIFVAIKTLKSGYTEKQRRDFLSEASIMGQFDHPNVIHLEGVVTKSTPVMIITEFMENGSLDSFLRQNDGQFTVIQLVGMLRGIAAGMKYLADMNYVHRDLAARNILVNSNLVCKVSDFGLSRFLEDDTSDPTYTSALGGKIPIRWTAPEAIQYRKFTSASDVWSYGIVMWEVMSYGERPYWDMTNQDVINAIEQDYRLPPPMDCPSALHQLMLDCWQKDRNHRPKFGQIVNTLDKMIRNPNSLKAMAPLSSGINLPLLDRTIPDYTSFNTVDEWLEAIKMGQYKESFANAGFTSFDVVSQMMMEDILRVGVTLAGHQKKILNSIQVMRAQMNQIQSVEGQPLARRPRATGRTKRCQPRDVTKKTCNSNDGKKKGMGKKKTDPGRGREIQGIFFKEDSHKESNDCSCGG

[2] = molecular target: Focal adhesion kinase 1 (Homo sapiens) (UniProt Q05397); assay: Residual activity of FAK at 0.1 uM by microplate scintillation counting
[3] = molecular target: Mitogen-activated protein kinase 8 (Homo sapiens) (UniProt P45983); assay: Residual activity of JNK1 at 0.1 uM by microplate scintillation counting
[4] = system: T2, Dual specificity mitogen-activated protein kinase kinase 6 (Homo sapiens), P52564 [S207D,T211D]; assay: Residual activity of MKK6 S207D/T211D mutant at 0.1 uM by microplate scintillation counting
T2 sequence (whole entry): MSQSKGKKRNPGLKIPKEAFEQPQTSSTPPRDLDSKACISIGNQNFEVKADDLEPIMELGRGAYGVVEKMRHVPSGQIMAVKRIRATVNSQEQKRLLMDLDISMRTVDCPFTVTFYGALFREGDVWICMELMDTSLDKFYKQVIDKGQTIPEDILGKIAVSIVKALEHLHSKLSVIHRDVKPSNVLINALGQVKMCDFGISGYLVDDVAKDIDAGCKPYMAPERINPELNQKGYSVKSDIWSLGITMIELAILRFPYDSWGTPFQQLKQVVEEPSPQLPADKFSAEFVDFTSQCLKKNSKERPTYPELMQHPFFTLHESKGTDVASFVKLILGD

[5] = molecular target: T3, cGMP-dependent protein kinase 1 (Homo sapiens) (UniProt Q13976); assay: Residual activity of PRKG1 at 1 uM by microplate scintillation counting
T3 sequence (whole entry): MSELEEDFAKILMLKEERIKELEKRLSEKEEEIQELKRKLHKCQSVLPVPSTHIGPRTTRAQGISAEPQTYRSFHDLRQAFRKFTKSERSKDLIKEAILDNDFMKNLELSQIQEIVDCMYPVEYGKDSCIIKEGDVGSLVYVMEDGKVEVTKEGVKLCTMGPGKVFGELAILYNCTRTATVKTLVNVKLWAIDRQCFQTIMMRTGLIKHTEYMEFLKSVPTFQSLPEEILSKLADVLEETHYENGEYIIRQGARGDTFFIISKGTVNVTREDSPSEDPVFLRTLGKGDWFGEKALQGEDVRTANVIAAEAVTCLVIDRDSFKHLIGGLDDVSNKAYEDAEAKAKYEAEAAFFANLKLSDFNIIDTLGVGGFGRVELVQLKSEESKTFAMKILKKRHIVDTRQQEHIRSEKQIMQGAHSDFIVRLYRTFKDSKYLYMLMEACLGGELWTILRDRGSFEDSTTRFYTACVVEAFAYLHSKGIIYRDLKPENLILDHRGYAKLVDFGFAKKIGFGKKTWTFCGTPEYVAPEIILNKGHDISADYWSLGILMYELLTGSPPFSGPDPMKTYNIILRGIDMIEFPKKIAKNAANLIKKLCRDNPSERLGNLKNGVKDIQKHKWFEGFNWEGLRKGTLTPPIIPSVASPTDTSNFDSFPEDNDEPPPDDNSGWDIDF

[6] = molecular target: Serine/threonine-protein kinase 16 (Homo sapiens) (UniProt O75716); assay: Residual activity of TSF1 at 1 uM by microplate scintillation counting
[7] = molecular target: Calcium/calmodulin-dependent protein kinase type II subunit alpha (Homo sapiens) (UniProt Q9UQM7); assay: Residual activity of CAMK2A at 10 uM by microplate scintillation counting
[8] = molecular target: Cyclin-dependent kinase 5/CDK5 activator 1 (Homo sapiens) (UniProt Q00535+Q15078); assay: Residual activity of CDK5/p35NCK at 10 uM by microplate scintillation counting; assay type: protein-complex assay
[9] = molecular target: Platelet-derived growth factor receptor alpha (Homo sapiens) (UniProt P16234); assay: Residual activity of PDGFRalpha at 10 uM by microplate scintillation counting
[10] = molecular target: Calcium/calmodulin-dependent protein kinase type II subunit alpha (Homo sapiens) (UniProt Q9UQM7); assay: Residual activity of CAMK2A at 1 uM by microplate scintillation counting
[11] = molecular target: Calcium/calmodulin-dependent protein kinase type II subunit alpha (Homo sapiens) (UniProt Q9UQM7); assay: Residual activity of CAMK2A at 0.1 uM by microplate scintillation counting

Chain of Mitogen-activated protein kinase 8 (Homo sapiens) (P45983 whole entry): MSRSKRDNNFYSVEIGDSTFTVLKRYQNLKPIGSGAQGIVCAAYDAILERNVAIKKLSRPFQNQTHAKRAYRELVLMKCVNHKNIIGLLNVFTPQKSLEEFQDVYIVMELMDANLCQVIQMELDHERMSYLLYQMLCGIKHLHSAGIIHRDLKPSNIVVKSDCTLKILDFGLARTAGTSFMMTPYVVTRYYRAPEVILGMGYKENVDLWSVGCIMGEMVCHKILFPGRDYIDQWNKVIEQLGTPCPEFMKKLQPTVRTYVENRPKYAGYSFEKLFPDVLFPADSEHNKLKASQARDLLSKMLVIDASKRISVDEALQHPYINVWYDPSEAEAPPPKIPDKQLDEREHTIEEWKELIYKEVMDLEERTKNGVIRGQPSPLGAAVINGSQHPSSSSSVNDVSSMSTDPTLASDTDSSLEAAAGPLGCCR
Chain of Cyclin-dependent kinase 5/CDK5 activator 1 (Homo sapiens) (Q00535 whole entry): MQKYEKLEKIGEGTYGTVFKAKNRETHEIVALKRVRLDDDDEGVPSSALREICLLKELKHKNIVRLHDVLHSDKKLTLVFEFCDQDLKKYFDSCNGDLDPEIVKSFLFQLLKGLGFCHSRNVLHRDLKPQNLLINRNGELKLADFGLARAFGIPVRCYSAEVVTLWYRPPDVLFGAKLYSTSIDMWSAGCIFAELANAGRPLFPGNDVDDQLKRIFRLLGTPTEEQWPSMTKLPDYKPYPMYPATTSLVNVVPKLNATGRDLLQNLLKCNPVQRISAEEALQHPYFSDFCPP
Chain of Cyclin-dependent kinase 5/CDK5 activator 1 (Homo sapiens) (Q15078 99-307 partner limits assumed): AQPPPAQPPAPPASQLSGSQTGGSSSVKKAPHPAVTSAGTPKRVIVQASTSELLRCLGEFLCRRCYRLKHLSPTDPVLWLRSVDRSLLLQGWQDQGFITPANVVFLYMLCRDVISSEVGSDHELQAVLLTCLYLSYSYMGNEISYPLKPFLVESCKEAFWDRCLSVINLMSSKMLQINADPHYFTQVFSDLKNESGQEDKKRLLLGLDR
Chain of Calcium/calmodulin-dependent protein kinase type II subunit alpha (Homo sapiens) (Q9UQM7 whole entry): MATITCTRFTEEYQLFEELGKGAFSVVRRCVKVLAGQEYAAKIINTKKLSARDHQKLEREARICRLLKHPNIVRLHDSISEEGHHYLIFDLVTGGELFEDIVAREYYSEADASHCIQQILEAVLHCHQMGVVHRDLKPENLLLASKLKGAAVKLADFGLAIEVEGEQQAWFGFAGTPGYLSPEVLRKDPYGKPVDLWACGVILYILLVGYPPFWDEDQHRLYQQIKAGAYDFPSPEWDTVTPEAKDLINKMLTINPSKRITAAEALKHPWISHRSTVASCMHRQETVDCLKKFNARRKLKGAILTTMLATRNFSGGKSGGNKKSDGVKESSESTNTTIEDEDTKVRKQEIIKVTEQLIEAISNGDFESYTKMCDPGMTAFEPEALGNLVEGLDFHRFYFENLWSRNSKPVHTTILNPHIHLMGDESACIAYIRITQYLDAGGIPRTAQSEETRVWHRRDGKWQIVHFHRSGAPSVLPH
Chain of Focal adhesion kinase 1 (Homo sapiens) (Q05397 2-1052 limits assumed): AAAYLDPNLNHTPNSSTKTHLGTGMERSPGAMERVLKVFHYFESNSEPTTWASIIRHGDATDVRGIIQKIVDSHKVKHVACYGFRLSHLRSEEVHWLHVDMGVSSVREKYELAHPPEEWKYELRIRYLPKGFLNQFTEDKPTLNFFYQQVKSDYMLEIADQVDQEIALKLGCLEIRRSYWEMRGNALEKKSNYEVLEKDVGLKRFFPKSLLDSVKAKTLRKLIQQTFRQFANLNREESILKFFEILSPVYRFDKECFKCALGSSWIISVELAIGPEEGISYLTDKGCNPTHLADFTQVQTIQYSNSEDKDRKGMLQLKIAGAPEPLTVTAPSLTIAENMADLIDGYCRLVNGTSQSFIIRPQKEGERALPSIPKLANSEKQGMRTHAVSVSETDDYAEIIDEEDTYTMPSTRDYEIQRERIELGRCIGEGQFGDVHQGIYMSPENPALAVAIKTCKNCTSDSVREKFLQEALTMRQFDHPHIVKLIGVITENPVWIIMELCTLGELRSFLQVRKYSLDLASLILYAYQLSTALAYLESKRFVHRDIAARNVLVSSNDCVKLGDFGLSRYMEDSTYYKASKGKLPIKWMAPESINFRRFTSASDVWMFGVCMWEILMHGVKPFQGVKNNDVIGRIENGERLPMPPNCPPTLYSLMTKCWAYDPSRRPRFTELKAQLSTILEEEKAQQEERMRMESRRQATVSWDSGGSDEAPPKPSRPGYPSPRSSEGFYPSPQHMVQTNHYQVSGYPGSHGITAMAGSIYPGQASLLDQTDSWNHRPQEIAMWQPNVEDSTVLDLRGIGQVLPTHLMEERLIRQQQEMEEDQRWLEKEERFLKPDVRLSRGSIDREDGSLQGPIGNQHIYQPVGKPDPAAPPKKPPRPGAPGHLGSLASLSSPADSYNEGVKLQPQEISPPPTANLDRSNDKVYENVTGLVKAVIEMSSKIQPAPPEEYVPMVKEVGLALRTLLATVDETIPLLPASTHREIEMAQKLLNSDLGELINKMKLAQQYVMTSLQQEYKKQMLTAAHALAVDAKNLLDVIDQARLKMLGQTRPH
Chain of Platelet-derived growth factor receptor alpha (Homo sapiens) (P16234 whole entry): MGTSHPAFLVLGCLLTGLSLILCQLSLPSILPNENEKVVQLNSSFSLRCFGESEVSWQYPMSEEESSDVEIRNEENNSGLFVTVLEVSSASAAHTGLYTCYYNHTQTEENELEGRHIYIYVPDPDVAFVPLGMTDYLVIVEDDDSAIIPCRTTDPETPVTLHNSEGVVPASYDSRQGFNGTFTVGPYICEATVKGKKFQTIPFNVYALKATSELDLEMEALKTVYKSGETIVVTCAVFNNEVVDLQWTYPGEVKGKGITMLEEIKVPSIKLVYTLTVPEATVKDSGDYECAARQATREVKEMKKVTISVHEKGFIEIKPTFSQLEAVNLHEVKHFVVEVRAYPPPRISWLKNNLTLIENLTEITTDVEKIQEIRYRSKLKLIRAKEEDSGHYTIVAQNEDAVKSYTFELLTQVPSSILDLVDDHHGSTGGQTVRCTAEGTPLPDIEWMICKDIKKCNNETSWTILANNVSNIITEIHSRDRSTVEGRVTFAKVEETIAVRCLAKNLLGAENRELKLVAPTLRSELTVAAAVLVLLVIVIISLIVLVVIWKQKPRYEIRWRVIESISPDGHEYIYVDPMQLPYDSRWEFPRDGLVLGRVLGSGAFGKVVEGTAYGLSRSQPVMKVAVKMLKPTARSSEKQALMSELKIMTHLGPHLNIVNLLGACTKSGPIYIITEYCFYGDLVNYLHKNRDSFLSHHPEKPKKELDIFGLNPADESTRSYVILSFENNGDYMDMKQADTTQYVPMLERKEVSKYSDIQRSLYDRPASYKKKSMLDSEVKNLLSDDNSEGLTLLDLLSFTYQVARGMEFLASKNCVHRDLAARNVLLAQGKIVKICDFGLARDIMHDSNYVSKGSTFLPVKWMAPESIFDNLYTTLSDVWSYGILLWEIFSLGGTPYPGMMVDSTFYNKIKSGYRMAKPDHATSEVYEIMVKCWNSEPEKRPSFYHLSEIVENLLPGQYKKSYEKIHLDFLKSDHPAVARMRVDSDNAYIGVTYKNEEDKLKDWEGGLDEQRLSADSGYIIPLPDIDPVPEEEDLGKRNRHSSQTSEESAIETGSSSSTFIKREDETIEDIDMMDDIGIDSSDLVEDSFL
Chain of Serine/threonine-protein kinase 16 (Homo sapiens) (O75716 whole entry): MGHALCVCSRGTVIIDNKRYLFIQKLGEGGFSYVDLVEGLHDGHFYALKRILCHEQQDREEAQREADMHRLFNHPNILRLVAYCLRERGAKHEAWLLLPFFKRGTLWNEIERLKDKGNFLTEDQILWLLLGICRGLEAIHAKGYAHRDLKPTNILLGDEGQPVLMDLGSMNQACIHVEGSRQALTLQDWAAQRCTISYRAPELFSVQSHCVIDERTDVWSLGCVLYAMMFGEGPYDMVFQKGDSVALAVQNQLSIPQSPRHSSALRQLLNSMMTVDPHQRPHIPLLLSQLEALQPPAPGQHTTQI

## COc1cc2c(Oc3ccc(-c4nc5ccccc5s4)cc3)ncnc2cc1OCCCN1CCN(C)CC1
[1]
  residual activity: 99%
[2]
  residual activity: 94%
[3]
  residual activity: 98%
[4]
  residual activity: 80%
[5]
  residual activity: 87%
[6]
  residual activity: 90%
[7]
  residual activity: 10%
[8]
  residual activity: 96%
[9]
  residual activity: 20%
[10]
  residual activity: 69%
[11]
  residual activity: 80%

## COc1cc2c(Oc3ccc(-c4nc5ccccc5s4)cc3F)ncnc2cc1OCCCN1CCN(C)CC1
[1]
  residual activity: 98%
[2]
  residual activity: 98%
[3]
  residual activity: 101%
[4]
  residual activity: 95%
[5]
  residual activity: 97%
[6]
  residual activity: 96%
[7]
  residual activity: 21%
[8]
  residual activity: 86%
[9]
  residual activity: 30%
[10]
  residual activity: 83%
[11]
  residual activity: 91%

## COc1cc2c(Oc3ccc(-c4nc5ccccc5s4)cc3)ncnc2cc1OCCCN1CCCC1
[1]
  residual activity: 97%
[2]
  residual activity: 99%
[3]
  residual activity: 106%
[4]
  residual activity: 72%
[5]
  residual activity: 101%
[6]
  residual activity: 87%
[7]
  residual activity: 11%
[8]
  residual activity: 98%
[9]
  residual activity: 15%
[10]
  residual activity: 81%
[11]
  residual activity: 85%
